Data: US20050090496A1, “Sulphonyl compounds with 5-ht6 receptor affinity” (priority 2002, published 2005)
Counter-ions that a name gives are not always drawn.

Target: T1, human cloned 5-HT6 receptors (Homo sapiens, UniProt P50406)
T1 construct: expressed in transfected cells
Assay: affinity for the 5-HT6 receptor (procedures of WO98/27081)
Type: binding
Excerpt: Compounds can be tested following the procedures outlined in WO98/27081.

T1 sequence (P50406 whole entry): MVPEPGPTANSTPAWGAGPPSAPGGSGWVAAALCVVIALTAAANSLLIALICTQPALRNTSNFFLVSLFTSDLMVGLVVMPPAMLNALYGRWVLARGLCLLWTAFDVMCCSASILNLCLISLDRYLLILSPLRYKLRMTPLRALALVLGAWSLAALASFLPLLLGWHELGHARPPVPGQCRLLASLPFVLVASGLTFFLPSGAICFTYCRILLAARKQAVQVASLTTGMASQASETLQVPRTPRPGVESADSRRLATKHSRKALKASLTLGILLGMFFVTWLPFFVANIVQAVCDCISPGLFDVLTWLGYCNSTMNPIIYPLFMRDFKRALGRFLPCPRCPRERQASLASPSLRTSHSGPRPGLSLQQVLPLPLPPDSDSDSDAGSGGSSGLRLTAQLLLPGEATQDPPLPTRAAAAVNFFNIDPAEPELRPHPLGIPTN

Ki: < 10 nM
Structure (SMILES): O=S(=O)(c1cccc(Cl)c1)n1ccc2c(N3CCNCC3)ccnc21 [Example E1, 4[1-(3-Chlorobenzenesulfonyl)-1-pyrrolo[2,3-b]pyridin-4-yl]-piperazine hydrochloride]
